Results on one compound are retold here after paper PMC11304990, “Identification of mitochondrial ATP synthase as the cellular target of Ru-polypyridyl-β-carboline complexes by affinity-based protein profiling” (National Science Review, 2024).

The subject of data set [1] is A549 cells. Put plainly: Anticancer activity in wild type vs ATPase siRNA knockdown cells. The class given is cell-based, human. The conditions noted are these: compared to wild-type cells. The protocol:
(§1) Figure 1. Validation of ATP5F1 as the molecular target of Ru5. (A) Proteins pulled down by streptavidin from A549 cells treated with Ru5a followed by PAL. The cells were treated with Ru5a (50 μM) for 12 h and irradiated with UV light for 20 min. (B) The top five peptides enriched by Ru5a-mediated PAL were identified with the assistance of SILAC-based chemoproteomic studies. H1F0: H1 histone family member 0; HIST4H4: histone cluster 4 H4; HIST3H2BB: histone cluster 3 H2B family member b; ATP5F1E: ATP synthase F1 subunit epsilon; HIST1H2AJ: histone cluster 1 H2A family member J. (C) Pull-down western blotting analysis of ATPase in A549 cells treated with Ru5a. (D) Cellular Ru content in cells treated with Ru5/Ru5a (20 μM, 12 h) measured by ICP-MS. (E) Impact of Ru5/Ru5a (10 μM) on the thermal stability of ATP5F1 measured by CETSA. (F) Impact on the anticancer activities of Ru5/Ru5a against wild type and ATPase knocking down (by siRNA) A549 cells. The relative cellular viability was calculated using the cells without drug treatment in each group as the control group. (G) Inhibition of Ru5/Ru5a on the enzymatic activity of ATPase. (-)-blebbistatin was used as the positive control. (H) Molecular docking of Ru5 with ATPase (PDB: 3ZIA). The red dashes indicate the hydrogen bonds formed between Ru5 and the amino acid residues (SER38 and GLN39). […]

In data set [2] the test system is cisplatin-resistant A549R. Put plainly: MTT antiproliferative assay, A549R. The conditions noted are these: 72 h. The class given is cell-based, human. The source says:
(§2) Ru3–Ru9 also show a certain selectivity for cancer cells over normal cells, and Ru2, Ru3, Ru5 and Ru9 show higher selectivity index (SI) values than the other complexes.
(§3) PA-BPP was then used to confirm the molecular targets of Ru5 by modifying it with a ‘minimalist’ biorthogonal handle-containing photo-cross-linker. Through our structure–activity relationship analysis and comparison with other ruthenium complexes utilizing phen as the auxiliary ligands with similar coordination structures (using cisplatin as a control), we propose that the β-carboline ligands play an important role in antiproliferative activity. To maintain the binding characteristics of the β-carboline moiety with the targeted biomolecules, we linked the photo-cross-linker to one of the auxiliary ligands of Ru5.
A general note: Formazan colour is commonly taken as a measure of viable cells.

Data set [3] deals with triple negative breast cancer (MDA-MB-231). Put plainly: MTT antiproliferative assay, MDA-MB-231. The class given is cell-based, human. The settings on record: 72 h.
Source text: as §2, §3

Data set [4] concerns malignant glioma (U87). The data set is described as follows: MTT antiproliferative assay, U87. The settings on record: 72 h. The class given is cell-based, human.
Source text: as §2, §3

Data set [5] deals with ATP5F1. The data set is described as follows: Cellular thermal shift assay (CETSA). The class given is cell-based. The settings on record: 10 μM. The protocol: as §1
Data set [6] concerns A549 xenograft. Put plainly: A549 xenograft nude mice model. The class given is in vivo. The protocol: Lastly, the in vivo anticancer activity of Ru5 was assessed via a A549 xenograft nude mice model (Fig. 5A). Mice were treated with PBS, cisplatin (5 mg kg^−1) or Ru5 (5 mg kg^−1) for 14 days, during which body weights and tumor volumes were monitored.
Figure 5. […] (A) Schematic illustration of in vivo therapeutic protocol. (B) Graphs of tumor volumes of nude mice after treatment with Ru5 (5 mg kg^−1), cisplatin (5 mg kg^−1) and PBS. The intratumoral injections were performed every 7 days. Data are presented as means ± SD, n = 5. (C) Immunohistochemical analysis of hematoxylin-eosin (H&E) staining in tumor sections from mice with different treatments. Scale bar: 50 μm. (D) Tumors separated from nude mice. (E) The average body weight of the mice in each group during the treatment process. Data are presented as means ± SD, n = 5. (F) H&E staining of the main organs from mice with different treatments. Scale bar: 100 μm.

The test system of data set [7] is lung adenocarcinoma (A549). Put plainly: MTT antiproliferative assay, A549. The conditions noted are these: 72 h. The class given is cell-based, human.
Source text: as §2, §3

The IC50 is the point on the concentration scale where inhibition reaches its midpoint. Read a low IC50 as greater potency. For the compound `F[P-](F)(F)(F)(F)F.F[P-](F)(F)(F)(F)F.[Ru+2].c1ccc2c(c1)[nH]c1c(-c3ncc[nH]3)nccc12.c1cnc2c(c1)ccc1cccnc12.c1cnc2c(c1)ccc1cccnc12` [Ru5], the “Effect of siRNA-mediated knockdown of ATPase on anticancer effects” value in data set [1] is “alleviates”. Further, the IC50 in data set [2] is 3.3 ± 0.7 µM; in data set [3], 7.7 ± 0.2 µM; in data set [4], 14.7 ± 0.7 µM; in data set [7] it was 2.1 ± 0.8 µM. The “Thermal stability of ATP5F1” value in data set [5] is reported as “increased”. Further, the Body weight loss result in data set [6] (5 mg kg−1, 14 days) is on record as “no significant body weight loss”. For the same compound, the “Organ damage (H&E staining of the main organs)” value in data set [6] (5 mg kg−1, 14 days) is given as “no significant”. Moreover, the “Tumor inhibition compared with cisplatin and PBS” value in data set [6] (5 mg kg−1, 14 days) was “better tumor inhibition”. Further, in data set [6] (5 mg kg−1, intratumoral injection every 7 days, 14 days, compared with the control groups), the “Tumor growth inhibitory rate” value is around 89.6%.
